# Measured values as given in paper PMC5131891, “Structural Insights into Streptococcal Competence Regulation by the Cell-to-Cell Communication System ComRS” (PLoS Pathogens, 2016).
# Where two headings read alike, the source gives them in different places. Peptide text beside a SMILES is read from it.
# B1: XIP Y19A variant (ComS 17-24 with Y19A) (peptide)
# peptide: LPAFAGCL
# B2: XIP F20A variant (ComS 17-24 with F20A) (peptide)
# peptide: LPYAAGCL
# B3: XIP L24A variant (ComS 17-24 with L24A) (peptide)
# peptide: LPYFAGCA
# What was measured:
# [1] = test system: ComR from S. thermophilus; design: method as in 2 sources, ref [30] = [30]; PMID 23323845; doi:10.1111/mmi.12157; 30 Fontaine L , Goffin P , Dubout H , Delplace B , Baulard A , Lecat-Guillet N , et al Mechanism of competence activation by the ComRS signalling system in streptococci . Mol Microbiol . 2013; 87 ( 6 ||| ref [29] = [29]; PMID 20023010; doi:10.1128/JB.01251-09; 29 Fontaine L , Boutry C , de Frahan MH , Delplace B , Fremaux C , Horvath P , et al A novel pheromone quorum-sensing system controls the development of natural competence in Streptococcus thermophilu; conditions: cited from earlier work; for in vivo activation efficiency / activation of ComR: previous analysis, ComR from S. thermophilus, ref [30]; for activity of heptapeptide ComS18-24: previous study, lacking the N-terminal Leucine, ref [29]
# ComR WT = ComR WT (Streptococcus thermophilus, UniProt A0A1L1QK15); test: biochemical; type: binding, Streptococcus thermophilus LMD-9; conditions: for Kd: Table 2 (WT and variant XIPs), ITC, 20°C, 20 mM Tris-HCl pH 8.0, 150 mM NaCl, 1 mM EDTA, 50 μM protein in cell, 500 μM peptide in syringe, one-binding-site model, apparent KD, read-out: KD
# Procedure: Purification of ComR-StreptagII proteins (StreptagII at C-terminus) was performed as described previously with some modifications. E. coli strain BL21 Gold cultures were grown in 2YT medium at 15°C until an OD600 of ~ 0.5, cooled down on ice for 10 minutes, and induced by addition of 0.2% of L-arabinose (wt vol^-1) before continuous shaking at 28°C for 4 h. Cells were then harvested by centrifugation (5,000 × g during 15 min at 8°C). The pellets were resuspended in cold buffer W (100 mM Tris-HCl pH 8.0, 150 mM NaCl, 1 mM EDTA) supplemented with 0.5 mg ml^−1 of lysozyme, incubated for 30 min at 4°C, and sonicated at 4°C. […] For structural and biophysical analyses, the purification protocol was completed by a size exclusion chromatography step using a HiLoad 16/600 Superdex 75 prep grade column (GE Healthcare) equilibrated in buffer W plus 10% (vol vol^-1) glycerol. Purified proteins were aliquoted, flash frozen and conserved at -20°C. Their purity was visualized by SDS-PAGE and their concentrations were measured using a Nanodrop apparatus (protein A280 method) (ThermoFisher Scientific).
# Isothermal titration calorimetry (ITC) experiments were performed at 20°C in 20 mM Tris-HCl pH 8.0, 150 mM NaCl, 1 mM EDTA with an ITC200 calorimeter (Microcal). The protein concentration in the microcalorimeter cell and the peptide concentration in the syringe were set at 50 μM and 500 μM, respectively. A first injection of 0.4 μl, which was not taken into account for the fitting, was followed by 20 injections of 2 μl at intervals of 180 s. The peptide concentration used in the calculations is based on the weight of the lyophilized peptide and is therefore inaccurate because there may be a significant quantity of bound water, and salts or counter ions. However, the calculated number of binding sites, n, is always close to 1, in agreement with the 1:1 ratio observed in the crystal structure of the ternary complex. […] The data were analyzed using the MicroCal Origin software provided by the manufacturer. […] It was therefore not possible to distinguish the two events and the fitting was performed with the one-binding-site model. The calculated KD are therefore apparent values.
# [2] = target: ComR from Streptococcus thermophilus LMD-9 (ComR-StreptagII, wild type) (Streptococcus thermophilus LMD-9); test: ITC; peptide 500 μM in the syringe, ComR 50 μM in the cell; 20°C; 20 mM Tris-HCl pH 8.0, 150 mM NaCl, 1 mM EDTA; one-binding-site model; apparent KD (peptide binding and dimerization not told apart)
molecule,measurement,setting,value
GAWYYVPL [casein-derived octapeptide GAWYYVPL],in vivo activation efficiency / activation of ComR,[1],also activated
CC(C)C[C@H](N)C(=O)N1CCC[C@H]1C(=O)N[C@@H](Cc1ccc(O)cc1)C(=O)N[C@@H](Cc1ccccc1)C(=O)N[C@@H](C)C(=O)NCC(=O)N[C@@H](CS)C(=O)N[C@@H](C)C(=O)O [L24A] (H-LPYFAGCA-OH),affinity in words,ComR WT,the affinity of the peptide decreases drastically
same,Kd,ComR WT,1550 ± 332 nM
CC(C)C[C@H](NC(=O)[C@H](CS)NC(=O)CNC(=O)[C@H](C)NC(=O)[C@H](Cc1ccccc1)NC(=O)[C@H](C)NC(=O)[C@@H]1CCCN1C(=O)[C@@H](N)CC(C)C)C(=O)O [Y19A] (H-LPAFAGCL-OH),affinity in words,ComR WT,only little impact on the affinity of the protein
same,Kd,ComR WT,52 ± 13 nM
LAYFYPEL [casein-derivative peptide LAYFYPEL],in vivo activation efficiency / activation of ComR,[1],inactive
MGLDWWSL [type II peptide MGLDWWSL from S. mutans],in vivo activation efficiency / activation of ComR,[1],more efficiently activated by the type II peptide MGLDWWSL from S. mutans than by the type I peptide VPFFMIYY
VPFFMIYY [type I peptide VPFFMIYY from S. vestibularis],in vivo activation efficiency / activation of ComR,[1],more efficiently activated by the type II peptide MGLDWWSL from S. mutans than by the type I peptide VPFFMIYY
CC(C)C[C@H](NC(=O)[C@H](CS)NC(=O)CNC(=O)[C@H](C)NC(=O)[C@H](C)NC(=O)[C@H](Cc1ccc(O)cc1)NC(=O)[C@@H]1CCCN1C(=O)[C@@H](N)CC(C)C)C(=O)O [F20A] (H-LPYAAGCL-OH),affinity in words,ComR WT,the affinity of the peptide decreases drastically
same,Kd,ComR WT,2130 ± 226 nM
"ComS18-24: heptapeptide ComS18-24 lacking the N-terminal Leucine, minimal active form of the signaling peptide (PYFAGCL)",activity of heptapeptide ComS18-24,[1],also fully active
same,activity of heptapeptide ComS18-24,[1]; listed as heptapeptide 18–24,minimal active form of the signaling peptide
B1,Kd,[2],52 nM
same,stoichiometry N,[2],1.5
B2,Kd,[2],2130 nM
same,stoichiometry N,[2],1.2
B3,Kd,[2],1550 nM
same,stoichiometry N,[2],1.75
